Assay [1] addresses T1, MAO (substrate 5-HT) (Rattus norvegicus, UniProt P21396).
T1 construct: 20 μl of rat brain homogenate; from tissue; host or cells: rat brain homogenate
T1 sequence (P21396 1-526): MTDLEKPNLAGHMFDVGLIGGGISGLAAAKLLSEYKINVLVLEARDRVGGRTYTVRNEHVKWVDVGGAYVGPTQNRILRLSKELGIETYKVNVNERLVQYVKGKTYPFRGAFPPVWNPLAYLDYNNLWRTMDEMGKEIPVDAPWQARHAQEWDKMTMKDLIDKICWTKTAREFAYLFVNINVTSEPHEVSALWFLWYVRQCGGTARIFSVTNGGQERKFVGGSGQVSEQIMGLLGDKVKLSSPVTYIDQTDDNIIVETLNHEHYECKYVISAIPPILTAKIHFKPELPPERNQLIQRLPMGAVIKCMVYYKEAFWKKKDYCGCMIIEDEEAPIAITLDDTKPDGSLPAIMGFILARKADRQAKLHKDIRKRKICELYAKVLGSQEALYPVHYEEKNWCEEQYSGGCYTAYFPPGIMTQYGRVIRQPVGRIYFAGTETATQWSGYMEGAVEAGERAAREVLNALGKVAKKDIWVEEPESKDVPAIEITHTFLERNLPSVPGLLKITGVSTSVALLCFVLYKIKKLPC
Briefly: in vitro MAO inhibition in rat brain homogenate, substrate 14C-serotonin (5-HT). Conditions: substrate 14C-serotonin (5-HT) 2.10^-4 Mol/l, pH 7.4, 37° C., preincubation 30 minutes, incubation 10 minutes, read-out: IC 50, 5-HT. The assay is classed as biochemical. As for the experimental part: (§1) The MAO inhibiting activity of the compounds in accordance with the invention can be determined using standard methods. Thus, the preparations to be tested were subjected to the in vitro test described hereinafter, which followed the method published by R. J. Wurtmann and J. A. Axelrod [Biochem. Pharmac. 12, 1439-1441 (1963)].
(§2) Isolated rat brains are homogenized in the ratio 1:4 (weight/volume) in 0.1 molar potassium phosphate buffer (pH 7.4). whereupon the homogenates are diluted in the ratio 1:4 (volume/volume) with the same buffer and stored at -20°. A mixture of the following composition is used for the incubation:
(§3) 100 μl of 1M phosphate buffer (pH 7.4);
(§4) 100 μl solubilizate of the substance to be tested in water or dimethyl sulfoxide;
(§5) 20 μl of rat brain homogenate; and as the substrate
(§6) 80 μl of ^14 C-serotonin (5-HT) or ^14 C-phenylethylamine (PEA), in each case 100,000 decays per minute, corresponding to a final concentration of 2.10^-4 Mol/l and, respectively, 2.10^-5 Mol/l.
(§7) Prior to the addition of the substrate a preincubation at 37° C. was effected for 30 minutes. The incubation (in the presence of the substrate) was also effected at 37° C. and lasted 10 minutes.
(§8) The reaction is stopped by the addition of 200 μl of 2N hydrochloric acid.
(§9) The deaminated product, depending on the use of 5-HT or of PEA as the substrate, is extracted by shaking for 10 minutes with 5 ml of diethyl ether or with 5 ml of n-heptane, whereupon the mixture is centrifuged, the aqueous phase is frozen in a dry-ice bath and the organic phase is poured into a counting glass.
(§10) The activity of the MAO in comparison to control homogenates (without substance to be tested) is determined on the basis of the β-counter value and the IC 50 is defined as that concentration of a substance to be tested which decreases the activity of the MAO in the substrate 5-HT or PEA to 50%.

Assay [2] concerns the target T2, MAO (substrate PEA) (Rattus norvegicus, UniProt P19643).
T2 construct: 20 μl of rat brain homogenate; from tissue; host or cells: rat brain homogenate
T2 sequence (P19643 1-520): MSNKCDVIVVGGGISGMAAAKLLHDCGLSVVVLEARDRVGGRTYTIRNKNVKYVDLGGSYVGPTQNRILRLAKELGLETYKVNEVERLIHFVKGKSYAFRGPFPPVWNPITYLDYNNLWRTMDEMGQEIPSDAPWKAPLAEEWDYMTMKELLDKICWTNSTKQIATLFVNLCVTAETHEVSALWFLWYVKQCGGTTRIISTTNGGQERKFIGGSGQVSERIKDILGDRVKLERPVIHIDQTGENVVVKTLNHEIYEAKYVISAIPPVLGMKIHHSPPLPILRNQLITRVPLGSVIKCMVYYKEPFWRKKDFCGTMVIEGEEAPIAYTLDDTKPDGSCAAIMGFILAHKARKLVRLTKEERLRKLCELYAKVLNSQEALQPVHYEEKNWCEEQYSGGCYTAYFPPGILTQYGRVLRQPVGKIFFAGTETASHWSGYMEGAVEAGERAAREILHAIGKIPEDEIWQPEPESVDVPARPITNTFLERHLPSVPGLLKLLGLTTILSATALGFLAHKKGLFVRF
Briefly: in vitro MAO inhibition in rat brain homogenate, substrate 14C-phenylethylamine (PEA). The settings on record: substrate 14C-phenylethylamine (PEA) 2.10^-5 Mol/l, pH 7.4, 37° C., preincubation 30 minutes, incubation 10 minutes. The assay is classed as biochemical. As for the experimental part:
as §1, §2, §3, §4, §5, §6, §7, §8, §9, §10

A value given as a limit tells only on which side of the number the result lay.

`NCCNC(=O)c1ncsc1-c1ccc(F)cc1F` [5-(2,4-difluorophenyl)-4-thiazol, N-(2-aminoethyl)-5-(2,4-difluorophenyl)-4-thiazolecarboxamide]: the results for the IC50 in assay [1] and in assay [2] were 120 nM and 3600 nM, respectively.
Consider `NCCNC(=O)c1ncsc1-c1ccccc1F` [5-(2-fluorophenyl)-4-thiazol, N-(2-aminoethyl)-5-(2-fluorophenyl)-4-thiazolecarboxamide], for which the values for the IC50 in assay [1] and in assay [2] were 40 nM and more than 10000 nM, respectively.
On to `NCCNC(=O)c1ncoc1-c1ccco1` [5-(2-furyl)-4-oxazol, N-(2-aminoethyl)-5-(2-furyl)-4-oxazolecarboxamide], for which the IC50 is 22 nM in assay [1] and 2000 nM in assay [2].
With `NCCNC(=O)c1ncsc1-c1cc(Cl)cc(Cl)c1` [5-(3,5-dichlorophenyl)-4-thiazol, N-(2-aminoethyl)-5-(3,5-dichlorophenyl)-4-thiazolecarboxamide], the values for the IC50 in assay [1] and in assay [2] were 7 nM and 300 nM, respectively.
As for `NCCNC(=O)c1ncsc1-c1cccc(F)c1` [5-(3-fluorophenyl)-4-thiazol, N-(2-aminoethyl)-5-(3-fluorophenyl)-4-thiazolecarboxamide], the IC50 in assay [1] was 20 nM; in assay [2] it was more than 10000 nM.
For the compound `NCCNC(=O)c1ncoc1-c1ccc(Cl)cc1` [5-(4-chlorophenyl)-4-oxazol, N-(2-aminoethyl)-5-(4-chlorophenyl)-4-oxazolecarboxamide], the IC50 in assay [1] was less than 10 nM; in assay [2] it was more than 100000 nM.
For the compound `NCCNC(=O)c1ncsc1-c1ccc(F)cc1` [5-(4-fluorophenyl)-4-thiazol, N-(2-aminoethyl)-5-(4-fluorophenyl)-4-thiazolecarboxamide], the figures for the IC50 in assay [1] and in assay [2] were 60 nM and 100000 nM, respectively.
Regarding `NCCNC(=O)c1ncsc1-c1ccccc1` [5-phenyl-4-thiazol, N-(2-aminoethyl)-5-phenyl-4-thiazolecarboxamide], the values for the IC50 in assay [1] and in assay [2] were 20 nM and 20000 nM, respectively.

Values taken from US5011849A, “Compounds for treating and preventing cognitive diseases and depression and methods of making same” (Hoffmann-La Roche Inc., priority 1988, dated 1991).
